Laboratory results taken from US11497757B2, “Silanol based therapeutic payloads” (BlinkBio, Inc., priority 2016, dated 2022).

What was measured:
[1] = tested on: KB cells; assay: CellTiter-Glo cell viability, washout protocol; assay type: cell-based; conditions: for EC50: washout protocol: 2 h incubation, wash, additional 70 h, siloxane based conjugates; for % Kill (48 h): washout protocol
Method: Washout protocol: KB cells in culture were seeded in white clear bottom 96-well tissue culture plate at a density of 5,000 cells per well in a folate free RPMI media with 10% FBS a day prior to compound addition. Cells were counted visually with a hemocytometer and diluted accordingly to obtain the desired density. Cells were allowed to incubate for 24 hours in a humidified CO2 atmosphere in an incubator at 37° C. The spent media was aspirated and replenished with 100 μL of fresh media containing a 3-fold serial dilution of compound with concentrations ranging from 0.3 to 2000 nM and with a final DMSO concentration of 0.1%. Blank wells without compound were also treated with media containing 0.1% DMSO. […] […] At the end of 70 h, the spent media was removed and cells were washed once with fresh media and then suspended 100 μL of PBS. 100 μL of constituted Cell titer-glo reagent was added to each well and luminescence was recorded with a VICTOR plate reader according to manufacturers' protocol.

[2] = tested on: Folate receptor alpha expressing KB cells; assay: Confocal imaging study demonstrating endocytosis and Si-O cleavage; assay type: cell-based; conditions: 50 nM
Method: Example 51 as shown above contains a folate receptor targeting ligand, a spacer moiety, a siloxane core and two different fluorescent dyes (BODIPY and rhodamine) positioned on either side of the siloxane core. Folate receptor alpha expressing KB cells were grown in folic acid free media. The cells were incubated for 30 minutes on ice with 50 nM of Example 51, washed with fresh culture medium and then incubated in media at 37° C. for the desired length of time. The fate of both dyes was simultaneously monitored using confocal microscopy using Zeiss LSM 780 laser scanning microscope.

CC[C@]1(O)C[C@@H]2C[N@@](CCc3c([nH]c4ccccc34)[C@@](C(=O)OC)(c3cc4c(cc3OC)N(C)[C@H]3[C@@](O)(C(=O)NCCC[Si](C)(C)O[Si](C)(C)CSc5ncc(Cn6cc(COCCOCCOCCOCCOCCOCCNC(=O)CC[C@H](NC(=O)c7ccc(NCc8cnc9nc(N)[nH]c(=O)c9n8)cc7)C(=O)O)nn6)cn5)[C@H](O)[C@]5(CC)C=CCN6CC[C@]43[C@@H]65)C2)C1 [Example 24]
EC50 [1]: ~0.265 µM | % Kill (48 h) [1]: 84%

CCN(CC)c1ccc2c(-c3ccc(S(=O)(=O)NCc4cnc(SC[Si](C)(C)O[Si](C)(C)CCCN5C(=O)CC(SC[C@H](NC(=O)[C@H](CNC(=O)CCC6=[N+]7C(=Cc8c(C)cc(C)n8[B-]7(F)F)C=C6)NC(=O)[C@H](CC(=O)O)NC(=O)CC[C@H](NC(=O)c6ccc(NCc7cnc8nc(N)[nH]c(=O)c8n7)cc6)C(=O)O)C(=O)O)C5=O)nc4)cc3S(=O)(=O)[O-])c3ccc(=[N+](CC)CC)cc-3oc2c1 (some centres unmarked) [Example 51]
Folate receptor binding on cell surface (colocalization of dyes) ([2]; t=0): bound to the folate receptor on the cell surface | Cleavage of the siloxane core (color separation of the two dyes) ([2]; t=30 min, 37° C.): cleavage of the siloxane core was observed | Endocytosis of intact conjugate into the cell ([2]; t=30 min, 37° C.): endocytosis of intact Example 51 into the cell was observed

CC[C@]1(O)C[C@@H]2CN(CCc3c([nH]c4ccccc34)[C@@](C(=O)OC)(c3cc4c(cc3OC)N(C)[C@H]3[C@@](O)(C(=O)NCCC[Si](C)(C)O[Si](C)(C)CSc5ncc(Cn6cc(C[C@H](NC(=O)[C@H](CC(=O)O)NC(=O)[C@H](CC(=O)O)NC(=O)[C@H](CCCNC(=N)N)NC(=O)[C@H](CC(=O)O)NC(=O)CC[C@H](NC(=O)c7ccc(NCc8cnc9nc(N)[nH]c(=O)c9n8)cc7)C(=O)O)C(=O)O)nn6)cn5)[C@H](O)[C@]5(CC)C=CCN6CC[C@]43[C@@H]65)C2)C1 [Example 28]
EC50 [1]: ~0.156 µM | % Kill (48 h) [1]: 86%

CC[C@H](C)[C@@H]([C@@H](CC(=O)N1CCC[C@H]1[C@H](OC)[C@@H](C)C(=O)N[C@@H](Cc1ccccc1)C(=O)O)OC)N(C)C(=O)[C@@H](NC(=O)[C@H](C(C)C)N(C)C(=O)CCC[Si](C)(C)O[Si](C)(C)c1cccc(CC(=O)NCCOCCOCCOCCOCCOCCn2cc(COCC(COCc3cn(CCOCCOCCOCCOCCOCCNC(=O)Cc4cccc([Si](C)(C)O[Si](C)(C)CCCC(=O)N(C)[C@H](C(=O)N[C@H](C(=O)N(C)[C@@H]([C@@H](C)CC)[C@@H](CC(=O)N5CCC[C@H]5[C@H](OC)[C@@H](C)C(=O)N[C@@H](Cc5ccccc5)C(=O)O)OC)C(C)C)C(C)C)c4)nn3)(COCc3cn(CCOCCOCCOCCOCCOCCNC(=O)Cc4cccc([Si](C)(C)O[Si](C)(C)CCCC(=O)N(C)[C@H](C(=O)N[C@H](C(=O)N(C)[C@@H]([C@@H](C)CC)[C@@H](CC(=O)N5CCC[C@H]5[C@H](OC)[C@@H](C)C(=O)N[C@@H](Cc5ccccc5)C(=O)O)OC)C(C)C)C(C)C)c4)nn3)NC(=O)CCOCCOCCOCCOCCOCCOCCNC(=O)CC[C@H](NC(=O)c3ccc(NCc4cnc5nc(N)[nH]c(=O)c5n4)cc3)C(=O)O)nn2)c1)C(C)C [Example 35, Folate-PEG-Adaptor-PhenylSiLinker-TripleAuristatin]
EC50 [1]: ~0.008 µM
